Literature values, collected in patent US20150272124A1, “ANTIMICROBIAL COMPOSITIONS CONTAINING CATIONIC ACTIVE INGREDIENTS” (Ecolab USA Inc., priority 2014, published 2015).

Conditions: calcium-chelating agent complex, logarithmic form

Question: With `O=C(O)CC(NC(CC(=O)O)C(=O)O)C(=O)O` (stereo not shown) [IDS, Iminodisuccinic Acid] as the molecule, how does the “Log Stability constant, Ca2+” value read?
Answer: Its value is 5.2.
